Laboratory results from patent publication US11844808B2, “Methods and compositions for treating pre-eclampsia” (Women & Infants Hospital of Rhode Island, priority 2018, dated 2023).

How the values were obtained:
[1] = tested on: LAMP1/2, TFEB and cathepsin D; assay: Expression of LAMP1/2, TFEB and cathepsin D in hypoxia-exposed primary trophoblast cells; assay type: cell-based, human
Experimental: FIG. 15. To investigate the underlying mechanisms, it was evaluated whether Trehalose can enhance the activities of autophagy-lysosomal degradation pathway, the machinery responsible for clearance of protein aggregates. To this end, the signaling molecules of this machinery such as LAMP1/2, TFEB and cathepsin D were examined in primary trophoblast cells in response to hypoxia stimulation with and without Trehalose treatment.

pregnant IL10-/- mice = assay: Mouse model of PE: severe PE serum in pregnant IL10-/- mice; assay type: in vivo; conditions: for preeclampsia-like features (hypertension, proteinuria, growth restriction, kidney injury): PE serum at gd10 in IL-10-/- mice, 2 g/kg i.p. at gd9, or gd11 and gd14, or gd9, gd11 and gd14, readout gd17
Experimental: (§1) FIGS. 16 and 17. Based on the results in the cellular model of PE, the effect of Trehalose treatment in an animal model of PE was evaluated next in an established mouse model of PE by a single administration of severe PE serum in pregnant IL10^−/− mice at gd10^22. Using this model, mice were injected intraperitoneally with vehicle, Trehalose (2 g/kg), maltose, or D-glucose (2 g/kg) at gestational day (gd) 9 (a single dose before serum injection), at gd11 and gd14 (two doses after serum injection), or at gd9, gd11 and gd14 (one dose before and two doses after serum injection) (FIG. 16). At gd17, urine was collected, blood pressure was measured, and fetal weight was recorded (FIG. 17A-D). Kidney was fixed and processed for H&E staining for glomerular endotheliosis (FIG. 17E). As reported previously, administration of severe PE sera, not normal pregnancy sera, at gd10 recapitulated a full spectrum of PE-like manifestations in IL-10^−/− mice, including hypertension, proteinuria, renal injury and fetal growth restriction (FIG. 17).

[2] = tested on: placenta of pre-eclamptic mice; assay: Placentas of pre-eclamptic mice: ProteoStat signal and cathepsin D expression; assay type: in vivo, mouse; conditions: all dose regimens
Experimental: as §1
FIG. 18. Furthermore, the molecular events that underlie effects of Trehalose in pre-eclamptic mice were interrogated. The placentas from Trehalose-treated mice and controls were assessed for the abundance of aggregated proteins and expression of molecules in autophagy-lysosomal pathway.

[3] = tested on: protein aggregates in primary trophoblast cells; assay: ProteoStat staining of protein aggregates in hypoxia-exposed primary trophoblast cells; assay type: cell-based, human; conditions: 1% O2, 3 days
Experimental: Human primary trophoblast cells (ScienCell Research Laboratories) were plated on glass coverslips and cultured in trophoblast medium supplemented with 5% fetal bovine serum, 1% trophoblast growth supplement and 1% penicillin/streptomycin (ScienCell Research Laboratories) in a humidified atmosphere with 5% CO2 at 37° C. Cells were washed three times with Dulbecco's phosphate-buffered saline and cultured in serum-free trophoblast medium prior to exposure to low oxygen tension (1% O2) or normoxia (20% O2) for 3 days. Cells were fixed with 4% formaldehyde in PBS for 15 min, permeabilized and then stained with ProteoStat® dye. […] FIG. 14. The effect of Trehalose on protein aggregation was examined in primary trophoblast cells in response to hypoxia, a useful cellular model of PE. Primary trophoblast cells were cultured under normoxic and hypoxic (1% O2) culture conditions for 3 days, treated with vehicle, Trehalose, maltose, sucrose or D-glucose and then fixed for staining or lysed for Western blotting. ProteoStat, a dye with high affinity to aggregated proteins, was used to detect protein aggregates in treated and untreated cells.

[4] = tested on: components of autophagy-lysosomal machinery; assay: Western blot of autophagy markers in hypoxia-exposed primary trophoblast cells; assay type: cell-based, human; conditions: trehalose 50 mM, 1% O2, 3 days
Experimental: Primary trophoblast cells were treated with vehicle or trehalose (50 mM), exposed to low oxygen tension (1% O2) or normoxia, and fixed at 3 days. Cells were harvested and lysed in RIPA lysis buffer containing protease inhibitors cocktail (Sigma). Proteins were separated by 4-12% SDS-PAGE and transferred into PVDF membrane. After blocking with 5% nonfat milk in PBS-tween (PBS-T) buffer for 30 min, the transferred membrane was incubated overnight in indicated primary antibodies, diluted in 3% or 5% BSA in PBS-T buffer, at 4° C. The membrane was washed three times, incubated for 1 h at room temperature with HRP-conjugated goat anti-rabbit/mouse IgG (Cell signaling), and then treated with enhanced chemiluminescent substrate (Thermofisher) and exposed on film.

TCL-1 cells = assay: Autophagy-lysosomal machinery and protein aggregates in trophoblast cell line TCL-1 under hypoxia; assay type: cell-based, human
pS71-Pin1 = pS71-Pin1 immunostaining in nuclei of hypoxia-exposed primary trophoblast cells; assay type: cell-based, human; conditions: trehalose 50 mM, 1% O2, 3 days
Experimental: (§2) Human primary trophoblast cells (ScienCell Research Laboratories) were plated on glass coverslips and cultured in trophoblast medium supplemented with 5% fetal bovine serum, 1% trophoblast growth supplement and 1% penicillin/streptomycin (ScienCell Research Laboratories) in a humidified atmosphere with 5% CO2 at 37° C. Cells were washed three times with Dulbecco's phosphate-buffered saline and cultured in serum-free trophoblast medium prior to exposure to low oxygen tension (1% O2) or normoxia (20% O2) for 3 days. Cells were fixed with 4% formaldehyde in PBS for 15 min, permeabilized and then stained with ProteoStat® dye.
(§3) Primary trophoblast cells were treated with vehicle or trehalose (50 mM), exposed to low oxygen tension (1% O2) or normoxia, and fixed at 3 days. After permeabilized and blocked in PBS solution containing 1% Triton-X, 3% BSA and normal donkey serum for 30 min, cells were immunostained for pS71-Pin1 with rabbit anti-pS71-Pin1 antibody and then with Alexa Fluor 488 donkey anti-rabbit secondary antibody. Cells were then mounted in anti-quench mounting medium with DAPI.

[5] = FDA; safety studies in mice, rats, and rabbits including in pregnancy; cited from earlier work
Pin1 = Pin1 immunostaining in nuclei of hypoxia-exposed primary trophoblast cells; assay type: cell-based, human; conditions: trehalose 50 mM, 1% O2, 3 days
Experimental: as §2
as §3, with “[…]” for “pS71-Pin1”, “mouse anti-Pin1” for “rabbit anti-pS71-Pin1”, “anti-mouse” for “anti-rabbit”

cis-P-tau = cis-P-tau immunostaining in hypoxia-exposed primary trophoblast cells; assay type: cell-based, human; conditions: trehalose 50 mM, 1% O2, 3 days
Experimental: as §2
as §3, with “cis-P-tau” for “pS71-Pin1 with rabbit anti-pS71-Pin1 antibody”, “and” for “and then with Alexa Fluor 488 donkey anti-rabbit secondary antibody. Cells were then”

Structure (SMILES) | hypoxia-induced downregulation of LAMP1/2, TFEB and cathepsin D [1] | preeclampsia-like features (hypertension, proteinuria, growth restriction, kidney injury) (pregnant IL10-/- mice) | expression of cathepsin D in placenta [2] | protein aggregates in placenta (ProteoStat signal) ([2]; labyrinth, junctional zone and decidua) | hypoxia-induced accumulation of protein aggregates (ProteoStat signal) [3] | hypoxia-induced accumulation of protein aggregates (ProteoStat signal) ([3]; listed as trehalose) | effect in mice administered normal pregnancy sera (pregnant IL10-/- mice; normal pregnancy serum, IL-10-/- mice, 2 g/kg i.p.) | hypoxia-induced downregulation of components of autophagy-lysosomal machinery (Western blot) [4] | autophagy-lysosomal machinery and aggregate clearance under hypoxia (TCL-1 cells) | hypoxia-induced upregulation of nuclear pS71-Pin1 expression (pS71-Pin1) | safety status [5] | hypoxia-induced downregulation of nuclear Pin1 expression (Pin1) | hypoxia-induced upregulation of cis-P-tau (cis-P-tau)
O=C[C@H](O)[C@@H](O)[C@H](O)[C@H](O)CO [D-glucose, reference compound] | not easily observed | failed to rescue PE-like features |  |  |  |  |  |  |  |  |  |  | 
OC[C@H]1O[C@H](O[C@H]2[C@H](O)[C@@H](O)C(O)O[C@@H]2CO)[C@H](O)[C@@H](O)[C@@H]1O (mixture of isomers) [maltose, reference compound] | not easily observed | failed to rescue PE-like features |  |  |  |  |  |  |  |  |  |  | 
OC[C@H]1O[C@H](O[C@H]2O[C@H](CO)[C@@H](O)[C@H](O)[C@H]2O)[C@H](O)[C@@H](O)[C@@H]1O [Trehalose] | significantly rescued hypoxia-induced downregulation of these molecules | significantly reversed preeclampsia-like features | rescued the expression of cathepsin D | significantly decreased protein aggregates | significantly rescued hypoxia-induced accumulation of protein aggregates | inhibits protein aggregation | did not have obvious effect | blocked hypoxia-induced downregulation of these proteins | restores autophagy machinery | inhibited hypoxia-induced upregulation of nuclear pS71-Pin1 expression | generally regarded as safe | blocked hypoxia-induced downregulation of nuclear Pin expression | blocked hypoxia-induced upregulation of cis-P-tau
